Source: patent US8207176B2 (Glaxo Group Limited, priority 2005, dated 2012)
“Also recorded” adds a separate entry of the source. Where a name gives a salt, the structure may show the parent alone.

Test system: influx of neutrophils to the lung in LPS-challenged rats
Test: Rat LPS neutrophilia model
Format: in vivo
Settings: intratracheal, LPS aerosol 100 ug/ml 15 min, lavage 4 hours later, in at least one of the range of conditions tested, significant p<0.05, nonsignificant p>0.05
Description: The effect of compounds on the influx of neutrophils to the lung in LPS-challenged rats is evaluated as follows. The test compound is suspended in one of the following solutions: 0.5% tween 80/PBS, 0.5% tween 80/saline, 10% EtOH/saline (with pH adjusted to 2.0, or 8.0 with HCl, or unadjusted), Saline @ pH 2.0, 6.5 or 8.0, 0.5% Tragacanth, 1% DMSO/20% Encapsin/Saline, or acidified 5% Tragacanth. The suspension process may be aided by the use of a glass homogenizer. For intratracheal administration, the animals are anesthetized with inhaled isoflurane and placed in a supine position, the trachea is intubated with a steel gavage needle (1.5 inch, 22 gauge, small ball) or a Penn-Century Microsprayer Aerosolizer (model IA-IB) and 200 ul of dosing solution is delivered. The animals are visually monitored during the recovery process, which typically occurs within two minutes. It is noted that the test compounds may be alternatively administered via the microsprayer in a dry powder blend with a suitable excipient, such as lactose.
Rats treated with compound or vehicle (15 min-24 hours pretreatment) are exposed to an LPS aerosol (100 ug/ml) for 15 min. Four hours later the rats are euthanized with pentobarbital (100 mg/kg, i.p.) and the airways are lavaged with 5 washes of 5 ml of phosphate buffered saline. The harvested cells are stained (Diffquick) and counted to determine total and differential cell data. […] Inhibition of neutrophil levels relative to no compound controls is calculated based on the differential counts.
The data is obtained as % inhibition using a particular concentration and pretreat time.

Row | SMILES | inhibition of neutrophilia (neutrophil levels in lung lavage relative to no compound controls)
1 | CCN(CC)CCCNc1nc(-c2cc(C(=O)N(C)C)ccc2C)c2ccc(=O)n(-c3c(F)cccc3F)c2n1 [Example 120, 3-[2-{[3-(diethylamino)-propyl]amino}-8-(2,6-difluorophenyl)-7-oxo-7,8-dihydropyrido[2,3-d]-pyrimidin-4-yl]-N,N,4-trimethylbenzamide] | statistically nonsignificant inhibition; also recorded: inactive
2 | Cc1ccc(C(=O)NC2CCCC2)cc1-c1nc(N2CCC(N)CC2)nc2c1ccc(=O)n2-c1c(F)cccc1F [Example 70, 3-[2-(4-amino-1-piperidinyl)-8-(2,6-difluorophenyl)-7-oxo-7,8-dihydropyrido[2,3-d]pyrimidin-4-yl]-N-cyclopentyl-4-methylbenzamide] | statistically nonsignificant inhibition
3 | CCCNC(=O)c1ccc(C)c(-c2nc(N3CCC(N)CC3)nc3c2ccc(=O)n3-c2c(F)cccc2F)c1 [Example 69, 3-[2-(4-amino-1-piperidinyl)-8-(2,6-difluorophenyl)-7-oxo-7,8-dihydropyrido[2,3-d]pyrimidin-4-yl]-4-methyl-N-propylbenzamide] | statistically significant inhibition
4 | Cc1ccc(C(=O)Nc2nccs2)cc1-c1nc(NCCNC(C)C)nc2c1ccc(=O)n2-c1c(F)cccc1F [Example 103, 3-[8-(2,6-difluorophenyl)-2-({2-[(1-methylethyl)amino]ethyl}amino)-7-oxo-7,8-dihydropyrido[2,3-d]pyrimidin-4-yl]-4-methyl-N-1,3-thiazol-2-ylbenzamide] | statistically significant inhibition
5 | CCN(CC)CCCNc1nc(-c2cc(C(=O)NCC3CCCC3)ccc2C)c2ccc(=O)n(-c3c(F)cccc3F)c2n1 [Example 132, N-(cyclopentylmethyl)-3-[2-{[3-(diethylamino)propyl]amino}-8-(2,6-difluorophenyl)-7-oxo-7,8-dihydropyrido[2,3-d]pyrimidin-4-yl]-4-methylbenzamidetrifluoroacetate] | statistically nonsignificant inhibition
6 | CCN(CC)CCCNc1nc(-c2cc(C(=O)N[C@H](C)C(C)C)ccc2C)c2ccc(=O)n(-c3c(F)cccc3F)c2n1 [Example 130] | statistically nonsignificant inhibition
7 | Cc1ccc(NC(=O)c2cccc3cc[nH]c23)cc1-c1nc(NC(CO)CO)nc2c1ccc(=O)n2-c1c(F)cccc1F [Example 44, N-[3-(8-(2,6-difluorophenyl)-2-{[2-hydroxy-1-(hydroxymethyl)ethyl]amino}-7-oxo-7,8-dihydropyrido[2,3-d]pyrimidin-4-yl)-4-methylphenyl]-1H-indole-7-carboxamide trifluoroacetate] | statistically significant inhibition
8 | Cc1ccc(C(=O)Nc2ccc(F)cc2)cc1-c1nc(N2CCC(N)CC2)nc2c1ccc(=O)n2-c1c(F)cccc1F [Example 72] | statistically significant inhibition
9 | Cc1ccc(C(=O)NC2CCCC2)cc1-c1nc(NCc2ncc[nH]2)nc2c1ccc(=O)n2-c1c(F)cccc1F [Example 76, N-cyclopentyl-3-{8-(2,6-difluorophenyl)-2-[(1H-imidazol-2-ylmethyl)amino]-7-oxo-7,8-dihydropyrido[2,3-d]pyrimidin-4-yl}-4-methylbenzamide] | statistically nonsignificant inhibition
10 | Cc1ccc(C(=O)NCc2ccccc2)cc1-c1nc(NCc2ncc[nH]2)nc2c1ccc(=O)n2-c1c(F)cccc1F [Example 77, 3-{8-(2,6-difluorophenyl)-2-[(1H-imidazol-2-ylmethyl)amino]-7-oxo-7,8-dihydropyrido[2,3-d]pyrimidin-4-yl}-4-methyl-N-(phenylmethyl)benzamide] | statistically significant inhibition
